One assay relates to H3K27me3 mark. Briefly: H3K27me3 Alpha Hela Assay (AlphaLISA). Type of assay: cell-based. The following applies: Hela cells, read-out: EZH2 Cell H3K27me3 Alpha HeLa (EC50 K27me3). A digest of the protocol:
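HeLa cells at 1,000/well were treated with ten 3-fold compound doses for 72 h at 37 °C. After lysis and histone extraction, H3K27me3 was detected by AlphaLISA with anti-K27me3 acceptor beads, biotinylated anti-H3 (C-ter) antibody (3 nM final) and streptavidin donor beads (20 μg/mL final). Signals were normalized to DMSO and curve-fitted for EC50.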

A further assay has as its target EZH2 (Homo sapiens, UniProt Q15910). In words: EZH2 nuc BSA Brij 1.5 (IC50): rPRC2, biotinylated oligonucleosome substrate, 3H SAM FlashPlate. It counts as biochemical. The protocol: EZH2 Nuc BSA Brij 1.5 (IC50):
Assays were carried out by mixing rPRC2 together with biotinylated oligonucleosome substrates in the presence of the radio-labeled enzyme co-factor, S-adenosyl-L-methionine (^3H SAM) (Perkin Elmer) and monitoring the enzymatically mediated transfer of tritiated methyl groups from ^3H SAM to histone lysine residues. The amount of resulting tritiated methyl histone product was measured by first capturing the biotinylated oligonucleosomes in streptavidin (SAV) coated FlashPlates (Perkin Elmer), followed by a wash step to remove un-reacted ^3H SAM, and then counting on a TopCount NXT 384 well plate scintillation counter (Perkin Elmer). The final assay conditions for EZH2 were as follows: 50 mM Tris Buffer pH 8.5, 1 mM DTT, 69 μM Brij-35 detergent, 5.0 mM MgCl2, 0.1 mg/mL BSA, 0.2 μM ^3H SAM, 0.2 μM biotinylated oligonucleosomes, 3.6 μM H3K27me3 peptide and 2 nM EZH2.
Compound IC50 Measurements were Obtained as Follows:
Compounds were first dissolved in 100% DMSO as 10 mM stock solutions. Ten point dose response curves were generated by dispensing varying amounts of the 10 mM compound solution in 10 wells of the 384 well plate (Echo; Labcyte), pure DMSO was then used to backfill the wells to insure all wells have the same amount of DMSO. A 12.5 μL volume of the HMT enzyme, H3K27me3 peptide and oligonucleosome substrate in assay buffer was added to each well of the assay plate using a Multidrop Combi (ThermoFisher). Compounds were pre-incubated with the enzyme for 20 min, followed by initiation of the methyltransferase reaction by addition of 12.5 μL of ^3H SAM in assay buffer (final volume=25 μL). The final concentrations of compounds ranged from a top default concentration of 80 μM down to 0.16 μM in ten 2-fold dilution steps. Reactions were carried out for 60 minutes and quenched with 20 μL per well of 1.96 mM SAH, 50 mM Tris pH 8.5, 200 mM EDTA. Stopped reactions were transferred to SAV coated Flashplates (Perkin Elmer), incubated for 120 min, washed with a plate washer, and then read on the TopCount NXT (1.0 min/well) to measure the amount of methyl histone product formed during the reaction. The amount of methyl histone product was compared with the amount of product formed in the 0% and 100% inhibition control wells allowing the calculation of % Inhibition in the presence of the individual compounds at various concentrations. IC50's were computed using a 4 parameter fit non-linear curve fitting software package (XLFIT, part of the database package, ActivityBase (IDBS)) where the four parameters were IC50, Hill slope, pre-transitional baseline (0% INH), and post-transitional baseline (100% INH); with the latter two parameters being fixed to zero and 100%, respectively, by default.

In a further assay the target is T1, PRC2 containing wt EZH2 (Homo sapiens, UniProt Q15910).
T1 construct: made in house
T1 sequence (Q15910 whole entry): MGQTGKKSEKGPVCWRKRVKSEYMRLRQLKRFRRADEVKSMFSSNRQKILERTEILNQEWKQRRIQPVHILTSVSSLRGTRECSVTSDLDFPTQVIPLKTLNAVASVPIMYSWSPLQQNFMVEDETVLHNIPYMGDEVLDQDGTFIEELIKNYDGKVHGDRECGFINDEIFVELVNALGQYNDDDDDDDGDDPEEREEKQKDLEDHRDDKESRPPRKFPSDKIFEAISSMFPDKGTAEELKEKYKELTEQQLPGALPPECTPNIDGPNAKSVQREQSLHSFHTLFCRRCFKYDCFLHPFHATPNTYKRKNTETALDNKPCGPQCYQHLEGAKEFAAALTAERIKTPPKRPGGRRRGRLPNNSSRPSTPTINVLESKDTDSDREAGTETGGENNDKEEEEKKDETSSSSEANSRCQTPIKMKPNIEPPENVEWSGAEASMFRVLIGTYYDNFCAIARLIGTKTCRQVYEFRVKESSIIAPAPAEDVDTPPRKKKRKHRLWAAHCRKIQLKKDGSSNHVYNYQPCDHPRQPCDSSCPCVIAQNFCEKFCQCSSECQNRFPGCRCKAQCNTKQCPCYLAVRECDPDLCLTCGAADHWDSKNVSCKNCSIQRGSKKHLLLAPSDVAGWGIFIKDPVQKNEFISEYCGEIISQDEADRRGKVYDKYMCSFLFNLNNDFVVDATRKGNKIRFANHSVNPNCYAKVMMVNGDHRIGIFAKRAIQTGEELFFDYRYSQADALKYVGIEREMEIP
T1 sequence (O75530 whole entry partner): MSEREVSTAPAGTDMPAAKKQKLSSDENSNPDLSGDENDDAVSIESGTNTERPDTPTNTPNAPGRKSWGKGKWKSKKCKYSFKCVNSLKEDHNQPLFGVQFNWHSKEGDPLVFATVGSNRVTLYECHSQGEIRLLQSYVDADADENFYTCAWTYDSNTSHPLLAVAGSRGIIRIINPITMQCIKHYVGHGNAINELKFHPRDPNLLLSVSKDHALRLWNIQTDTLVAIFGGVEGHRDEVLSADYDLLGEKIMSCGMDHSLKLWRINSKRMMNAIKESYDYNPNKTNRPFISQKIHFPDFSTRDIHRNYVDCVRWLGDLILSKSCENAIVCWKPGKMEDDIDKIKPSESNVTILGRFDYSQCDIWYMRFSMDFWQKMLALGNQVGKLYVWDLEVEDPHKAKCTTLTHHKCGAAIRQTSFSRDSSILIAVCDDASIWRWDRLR
T1 sequence (Q15022 whole entry partner): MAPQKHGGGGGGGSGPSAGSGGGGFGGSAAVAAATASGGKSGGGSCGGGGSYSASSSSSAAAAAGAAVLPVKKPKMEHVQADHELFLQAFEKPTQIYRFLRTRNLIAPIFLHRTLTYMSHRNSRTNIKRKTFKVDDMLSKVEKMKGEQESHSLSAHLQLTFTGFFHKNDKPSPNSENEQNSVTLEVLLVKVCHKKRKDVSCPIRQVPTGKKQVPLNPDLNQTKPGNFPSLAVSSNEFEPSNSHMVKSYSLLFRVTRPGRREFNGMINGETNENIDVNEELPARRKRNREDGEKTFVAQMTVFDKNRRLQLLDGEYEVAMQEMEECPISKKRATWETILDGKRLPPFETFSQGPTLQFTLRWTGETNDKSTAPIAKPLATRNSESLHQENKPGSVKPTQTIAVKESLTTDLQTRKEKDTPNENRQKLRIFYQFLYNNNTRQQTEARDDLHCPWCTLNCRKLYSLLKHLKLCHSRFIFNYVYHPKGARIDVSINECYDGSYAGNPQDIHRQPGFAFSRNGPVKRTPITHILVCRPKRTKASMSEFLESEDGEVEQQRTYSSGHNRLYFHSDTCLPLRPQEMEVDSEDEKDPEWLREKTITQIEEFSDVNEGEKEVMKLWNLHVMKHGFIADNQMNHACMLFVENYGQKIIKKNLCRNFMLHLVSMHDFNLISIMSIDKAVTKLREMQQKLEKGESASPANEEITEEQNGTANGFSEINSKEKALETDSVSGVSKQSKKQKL
T1 sequence (Q09028 whole entry partner): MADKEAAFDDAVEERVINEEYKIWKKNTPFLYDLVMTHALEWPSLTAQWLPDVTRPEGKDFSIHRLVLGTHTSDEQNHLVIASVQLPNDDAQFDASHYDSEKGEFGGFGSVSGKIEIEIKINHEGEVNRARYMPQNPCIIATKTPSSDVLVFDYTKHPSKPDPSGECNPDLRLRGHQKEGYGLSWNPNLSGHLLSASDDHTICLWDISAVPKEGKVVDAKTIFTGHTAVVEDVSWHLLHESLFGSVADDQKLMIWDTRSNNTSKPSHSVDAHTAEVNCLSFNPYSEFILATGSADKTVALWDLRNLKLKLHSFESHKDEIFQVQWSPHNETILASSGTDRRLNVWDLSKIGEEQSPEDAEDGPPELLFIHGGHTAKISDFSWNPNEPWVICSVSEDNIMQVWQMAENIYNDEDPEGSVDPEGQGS
T1 sequence (Q6ZN18 whole entry partner): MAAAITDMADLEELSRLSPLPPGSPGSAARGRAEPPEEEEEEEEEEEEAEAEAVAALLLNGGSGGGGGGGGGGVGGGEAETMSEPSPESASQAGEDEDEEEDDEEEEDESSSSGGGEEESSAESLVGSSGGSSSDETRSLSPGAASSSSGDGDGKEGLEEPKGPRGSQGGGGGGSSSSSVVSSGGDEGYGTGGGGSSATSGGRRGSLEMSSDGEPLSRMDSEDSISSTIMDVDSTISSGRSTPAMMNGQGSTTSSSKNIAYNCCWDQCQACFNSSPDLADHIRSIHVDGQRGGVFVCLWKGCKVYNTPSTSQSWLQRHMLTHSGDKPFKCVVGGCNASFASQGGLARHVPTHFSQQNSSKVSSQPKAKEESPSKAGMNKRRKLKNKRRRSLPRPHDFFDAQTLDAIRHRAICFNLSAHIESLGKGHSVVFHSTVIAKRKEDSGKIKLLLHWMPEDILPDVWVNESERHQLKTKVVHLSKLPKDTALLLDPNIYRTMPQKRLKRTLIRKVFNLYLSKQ
Briefly: EZH2 pep BSA Brij 4.0 LowE (IC50): 3H-SAM incorporation into biotinylated H3 peptide. It counts as biochemical. A digest of the protocol:
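PRC2 (wt EZH2, 20 pM) pre-incubated 120 min with compound, 0.9 μM 3H-SAM and 2 μM H3K27me3 activating peptide in pH 8.5 Tris/DTT/Brij-35/0.1% BSA, 0.8% DMSO. Biotinylated H3K27me1 peptide added (2 μM stock), 5 h at room temperature, EDTA/SAH quench, streptavidin Flashplate capture. IC50 from four-parameter fit versus full-activity and no-enzyme controls.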

The mark [1] stands for this setting: EZH2 nuc BSA Brij 1.5 (IC50), 2 nM EZH2, 0.2 μM biotinylated oligonucleosomes, 0.2 μM 3H SAM, 3.6 μM H3K27me3 peptide.
Where [2] appears, read: EZH2 pep BSA Brij 4.0 LowE (IC50), 20 pM PRC2 wt EZH2, 0.9 μM 3H-SAM, biotinylated H3 peptide substrate, 2 μM H3K27me3 activating peptide.
The mark [3] stands for this setting: read-out: EZH2 nuc BSA Brij 1.5 (IC50); 2 nM EZH2, 0.2 μM biotinylated oligonucleosomes, 0.2 μM 3H SAM, 3.6 μM H3K27me3 peptide.
Where [4] appears, read: read-out: EZH2 pep BSA Brij 4.0 LowE (IC50); 20 pM PRC2 wt EZH2, 0.9 μM 3H-SAM, biotinylated H3 peptide substrate, 2 μM H3K27me3 activating peptide.

The structures appear in SMILES notation. Read-outs that look alike come from different tables or passages of the source.

By EC50 is commonly meant the concentration giving half of the maximal effect. The term IC50 denotes the midpoint of a concentration-inhibition curve.

Sequence of EZH2 (Q15910 whole entry): as the sequence (Q15910 whole entry) above
Sequence of EZH2 (O75530 whole entry partner): as the sequence (O75530 whole entry partner) above
Sequence of EZH2 (Q15022 whole entry partner): as the sequence (Q15022 whole entry partner) above

On to `COc1cc(C)[nH]c(=O)c1CNC(=O)c1c(C)n(C(C)C2CCNC(C(F)(F)F)C2)c2ccccc12` (single isomer, unassigned) [Compound 14, N-((4-methoxy-6-methyl-2-oxo-1,2-dihydropyridin-3-yl)methyl)-2-methyl-1-(1-(2-(trifluoromethyl)piperidin-4-yl)ethyl)-1H-indole-3-carboxamide], for which, in the assay with H3K27me3 mark (72 hrs), the EC50 is less than 0.4 µM. For the same molecule, the half-maximal inhibitory concentration (IC50) on EZH2 (setting [1]) and against PRC2 containing wt EZH2 (setting [2]) was less than 0.1 µM throughout.
With `COc1cc(C)[nH]c(=O)c1CNC(=O)c1c(C)n(C(C)C2CCN(C)C(C(F)(F)F)C2)c2ccccc12` (single isomer, unassigned) [Compound 15, N-((4-methoxy-6-methyl-2-oxo-1,2-dihydropyridin-3-yl)methyl)-2-methyl-1-(1-(1-methyl-2-(trifluoromethyl)piperidin-4-yl)ethyl)-1H-indole-3-carboxamide], the 50% effective concentration (EC50) with H3K27me3 mark (72 hrs) was less than 0.4 µM. Further, the IC50 on EZH2 (setting [3]) and at PRC2 containing wt EZH2 (setting [2]) was less than 0.1 µM each time.
As for `COc1cc(C)[nH]c(=O)c1CNC(=O)c1c(C)n(C(C)C2CCNC(C(F)(F)F)C2)c2ccccc12` (single isomer, unassigned) [Compound 18, N-((4-methoxy-6-methyl-2-oxo-1,2-dihydropyridin-3-yl)methyl)-2-methyl-1-(1-(2-(trifluoromethyl)piperidin-4-yl)ethyl)-1H-indole-3-carboxamide], the concentration giving a half-maximal response (EC50) in the assay on H3K27me3 mark (72 hrs) was less than 0.4 µM. Also, the half-inhibitory concentration (IC50) on EZH2 (setting [1]) and at PRC2 containing wt EZH2 (setting [4]) was less than 0.1 µM in each case.
Take `COc1cc(C)[nH]c(=O)c1CNC(=O)c1c(C)n(C(C)C2CCN(C)C(C(F)(F)F)C2)c2ccccc12` (single isomer, unassigned) [Compound 24, N-((4-methoxy-6-methyl-2-oxo-1,2-dihydropyridin-3-yl)methyl)-2-methyl-1-(1-(1-methyl-2-(trifluoromethyl)piperidin-4-yl)ethyl)-1H-indole-3-carboxamide]: the concentration giving a half-maximal response (EC50) in the assay on H3K27me3 mark (72 hrs) was less than 0.4 µM. The IC50 on EZH2 (setting [3]) and at PRC2 containing wt EZH2 (setting [4]) was less than 0.1 µM throughout.
For `COc1cc(C)[nH]c(=O)c1CNC(=O)c1c(C)n(C(C)C2CCNC(c3ccc(F)cc3)C2)c2ccccc12` (single isomer, unassigned) [Compound 31, 1-(1-(2-(4-fluorophenyl)piperidin-4-yl)ethyl)-N-((4-methoxy-6-methyl-2-oxo-1,2-dihydropyridin-3-yl)methyl)-2-methyl-1H-indole-3-carboxamide], the concentration giving a half-maximal response (EC50) with H3K27me3 mark (72 hrs) lay within 0.4 to 2 µM. Also, the half-inhibitory concentration (IC50) is less than 0.1 µM on EZH2 (2 nM EZH2, 0.2 μM biotinylated oligonucleosomes, 0.2 μM 3H SAM, 3.6 μM H3K27me3 peptide; read-out: EZH2 nuc BSA Brij 1.5 (IC50)) and less than 0.1 µM on PRC2 containing wt EZH2 (20 pM PRC2 wt EZH2, 0.9 μM 3H-SAM, biotinylated H3 peptide substrate, 2 μM H3K27me3 activating peptide; read-out: EZH2 pep BSA Brij 4.0 LowE (IC50)).
As to `COc1cc(C)[nH]c(=O)c1CNC(=O)c1c(C)n(C(C)C2CCN(CC3CC3)C(C(F)(F)F)C2)c2ccccc12` (single isomer, unassigned) [Compound 38, 1-(1-(1-(cyclopropylmethyl)-2-(trifluoromethyl)piperidin-4-yl)ethyl)-N-((4-methoxy-6-methyl-2-oxo-1,2-dihydropyridin-3-yl)methyl)-2-methyl-1H-indole-3-carboxamide], in the assay on H3K27me3 mark (Homo sapiens, HeLa, 72 h), the EC50 was greater than 2 µM. On EZH2 (setting [1]), this molecule showed an IC50 of less than 0.1 µM.
For `COc1cc(C)[nH]c(=O)c1CNC(=O)c1c(C)n(C(C)C2CCN(CC3CC3)C(C(F)(F)F)C2)c2ccccc12` (single isomer, unassigned) [Compound 39, 1-(1-(1-(cyclopropylmethyl)-2-(trifluoromethyl)piperidin-4-yl)ethyl)-N-((4-methoxy-6-methyl-2-oxo-1,2-dihydropyridin-3-yl)methyl)-2-methyl-1H-indole-3-carboxamide], in the assay with H3K27me3 mark (72 hrs), the EC50 was greater than 2 µM. The IC50 at EZH2 (setting [3]) is less than 0.1 µM.
For the molecule `COc1cc(C)[nH]c(=O)c1CNC(=O)c1c(C)n(C(C)C2CCN(CC(F)F)C(C)C2)c2ccccc12` (single isomer, unassigned) [Compound 40, 1-(1-(1-(2,2-difluoroethyl)-2-methylpiperidin-4-yl)ethyl)-N-((4-methoxy-6-methyl-2-oxo-1,2-dihydropyridin-3-yl)methyl)-2-methyl-1H-indole-3-carboxamide], the concentration for a half-maximal effect (EC50) in the assay on H3K27me3 mark (Homo sapiens, HeLa, 72 h) was less than 0.4 µM. Besides, the IC50 at EZH2 (setting [1]) and at PRC2 containing wt EZH2 (setting [2]) was less than 0.1 µM each time.
As to `COc1cc(C)[nH]c(=O)c1CNC(=O)c1c(C)n(C(C)C2CCN(CC(F)F)C(C)C2)c2ccccc12` (single isomer, unassigned) [Compound 41, 1-(1-(1-(2,2-difluoroethyl)-2-methylpiperidin-4-yl)ethyl)-N-((4-methoxy-6-methyl-2-oxo-1,2-dihydropyridin-3-yl)methyl)-2-methyl-1H-indole-3-carboxamide], the EC50 in the assay with H3K27me3 mark (72 hrs) was less than 0.4 µM. For the same molecule, the IC50 on EZH2 (setting [3]) is less than 0.1 µM.
Turning to `COc1cc(C)[nH]c(=O)c1CNC(=O)c1c(C)n(C(C)C2CCN(CC(F)(F)F)C(C)C2)c2ccccc12` (single isomer, unassigned) [Compound 42, N-((4-methoxy-6-methyl-2-oxo-1,2-dihydropyridin-3-yl)methyl)-2-methyl-1-(1-(2-methyl-1-(2,2,2-trifluoroethyl)piperidin-4-yl)ethyl)-1H-indole-3-carboxamide], in the assay on H3K27me3 mark (Homo sapiens, HeLa, 72 h), the EC50 was in the range of 0.4 to 2 µM. The same molecule showed a 50% inhibitory concentration (IC50) on EZH2 (setting [1]) of less than 0.1 µM.
Consider `COc1cc(C)[nH]c(=O)c1CNC(=O)c1c(C)n(C(C)C2CCN(CC(F)(F)F)C(C)C2)c2ccccc12` (single isomer, unassigned) [Compound 43, N-((4-methoxy-6-methyl-2-oxo-1,2-dihydropyridin-3-yl)methyl)-2-methyl-1-(1-(2-methyl-1-(2,2,2-trifluoroethyl)piperidin-4-yl)ethyl)-1H-indole-3-carboxamide], for which, in the assay with H3K27me3 mark (72 hrs), the EC50 is less than 0.4 µM. Also, the IC50 at EZH2 (setting [3]) and against PRC2 containing wt EZH2 (setting [2]) was less than 0.1 µM each time.
With `COc1cc(C)[nH]c(=O)c1CNC(=O)c1c(C)n(C(C)C2CCNC3CCCCC32)c2ccccc12` (centres unmarked) [Compound 4, 1-(1-(decahydroquinolin-4-yl)ethyl)-N-((4-methoxy-6-methyl-2-oxo-1,2-dihydropyridin-3-yl)methyl)-2-methyl-1H-indole-3-carboxamide], the EC50 in the assay on H3K27me3 mark (Homo sapiens, HeLa, 72 h) is greater than 2 µM. At EZH2 (setting [1]), this molecule came in with a concentration for half-maximal inhibition (IC50) of less than 0.1 µM.
For `COc1cc(C)[nH]c(=O)c1CNC(=O)c1c(C)n(C(C)C2CCN(C)C(=O)C2)c2ccccc12` (centres unmarked) [Compound 11, N-((4-methoxy-6-methyl-2-oxo-1,2-dihydropyridin-3-yl)methyl)-2-methyl-1-(1-(1-methyl-2-oxopiperidin-4-yl)ethyl)-1H-indole-3-carboxamide] the same measures were greater than 2 µM and less than 0.1 µM.
On to `COc1cc(C)[nH]c(=O)c1CNC(=O)c1c(C)n(C(C)C2CCNCC2C(F)(F)F)c2ccccc12` (centres unmarked) [Compound 19, N-((4-methoxy-6-methyl-2-oxo-1,2-dihydropyridin-3-yl)methyl)-2-methyl-1-(1-(3-(trifluoromethyl)piperidin-4-yl)ethyl)-1H-indole-3-carboxamide], for which, in the assay on H3K27me3 mark (Homo sapiens, HeLa, 72 h), the EC50 is greater than 2 µM. In addition, the 50% inhibitory concentration (IC50) at EZH2 (setting [1]) is less than 0.1 µM.
